# According to USRE35053E, “Amines useful in producing pharmaceutically active CNS compounds” (The Upjohn Company, priority 1992, dated 1995):
# Where a name gives a salt, the structure may show the parent alone.
# Test system: arachidonic acid
# Assay: Arachidonic Acid Antagonism Assay (AAAA)
# Type: in vivo, mouse (Charles River male CF-1)
# Settings: mice; 100 mg/kg; LD50 of sodium arachidonate
# Description: While not necessary to determine arachidonic acid antagonism, the above assay has been modified as follows: Charles River male CF-1 mice weighing […] are treated IV with the test compound dissolved in 1.0% Tween-80 and 0.1% hydrochloric acid in distilled water. 0 2 ml total volume. Fifteen minutes later sodium arachidonate (90% pure) in physiological (normal) […] is injected into the tail vein. The LD50 is measured using the Spearman-Karber method with a log dose interval of 0.05 (N-6). Compounds which elevate the LD50 outside of the 95% confidence interval of the control LD50 are considered to be "active".
row,SMILES,% of Control LD50 [%]
1,CCN(CC)c1cc(N2CCN(C(=O)[C@@]3(O)CC[C@H]4[C@@H]5CCC6=CC(=O)CC[C@]6(C)[C@H]5CC[C@@]43C)CC2)nc(N(CC)CC)n1 [Example 57],124

# Same assay, conditions: mice; IV, 15 min before sodium arachidonate; outside 95% confidence interval of control LD50
row,SMILES,arachidonic acid antagonism (elevation of LD50 of arachidonic acid)
1,"CN1CCN(c2cc(N3CCN(CC(=O)[C@@]4(O)CC[C@H]5[C@@H]6CCC7=CC(=O)CC[C@]7(C)C6=CC[C@@]54C)CC3)nc(N3CCN(C)CC3)n2)CC1.CS(=O)(=O)O.O [Example 19, 17α-Hydroxy-21-[4-[2,6-bis(4-methyl 1 piperazinyl)-4-pyrimidinyl]-1-piperazinyl]pregna-4,9(11)-diene-3,20-dione methanesulfonate hydrate]",demonstrate arachidonic acid antagonism
2,"COc1cccc(N2CCN(CC(=O)[C@@]3(O)CC[C@H]4[C@@H]5CCC6=CC(=O)CC[C@]6(C)C5=CC[C@@]43C)CC2)n1.CS(=O)(=O)O [Example 22, 17α-hydroxy-21-[4-(6-methoxy-2-pyridinyl)-1-piperazinyl]pregna-4,9(11)-diene-3,20-dione monomethanesulfonate]",demonstrate arachidonic acid antagonism
3,"C[C@]12C=CC(=O)C=C1CC[C@@H]1[C@@H]2[C@@H](O)C[C@@]2(C)[C@H]1CC[C@]2(O)C(=O)CN1CCN(c2ccccn2)CC1 [Example 25, 11β,17α-dihydroxy-21-[4-(2-pyridinyl)-1-piperazinyl]-pregna-1,4-diene-3,20-dione dihydrochloride]",demonstrate arachidonic acid antagonism
4,"C[C@]12CCC(=O)C=C1CC[C@@H]1[C@@H]2[C@H](O)C[C@@]2(C)[C@H]1CC[C@]2(O)C(=O)CN1CCN(c2ccc(F)cc2)CC1 [Example 29, 21-[4-(4-fluorophenyl)-1-piperazinyl]-11α,17α-dihydroxypregn-4-ene-3,20-dione dihydrochloride]",demonstrate arachidonic acid antagonism
5,"C[C@]12CC(=O)[C@H]3[C@@H](CCC4=CC(=O)CC[C@@]43C)[C@@H]1CC[C@@H]2C(=O)CN1CCN(c2ccccn2)CC1.Cl.O [Example 45, 21-[4-(2-pyridinyl)-1-piperazinyl]pregn-4-ene-3,11,20-trione hydrochloride hydrate]",demonstrate arachidonic acid antagonism
6,"COc1ccc(CCN(CC(=O)[C@@]2(O)CC[C@H]3[C@@H]4CCC5=CC(=O)CC[C@]5(C)C4=CC[C@@]32C)Cc2ccc(N(C)C)cc2)cc1OC [Example 51, 17α-hydroxy-21-[[2-(3,4-dimethoxyphenyl)ethyl]-4-(dimethylamino)phenyl]methyl]amino]pregna-4,9(11)-3,20-dione hydrochloride]",demonstrate arachidonic acid antagonism
7,"CCN(CC)c1cc(N2CCN(CC(=O)[C@@]3(O)CC[C@H]4[C@@H]5CCC6=CC(=O)CC[C@]6(C)[C@H]5CC[C@@]43C)CC2)nc(N(CC)CC)n1 [Example 53, 21-[4-[2,-bis(diethylamino)-4-pyrimidinyl]-1-piperazinyl]-17α-hydroxypregn-4-ene-3,20-dione]",demonstrate arachidonic acid antagonism
8,"C[C@]12CCC(=O)C=C1CC[C@@H]1C2=CC[C@@]2(C)[C@H]1CC[C@]2(O)C(=O)CN1CCN(Cc2ccccn2)CC1 [Example 54, 17α-hydroxy-21-[4-(2-pyridinylmethyl)-1-piperazinyl]-pregna-4,9(11)-diene-3,20-dione(E)-2-butenedioate 1:1 salt]",demonstrate arachidonic acid antagonism
9,CCN(CC)c1cc(N2CCN(C(=O)[C@@]3(O)CC[C@H]4[C@@H]5CCC6=CC(=O)CC[C@]6(C)[C@H]5CC[C@@]43C)CC2)nc(N(CC)CC)n1 [Example 57],demonstrate arachidonic acid antagonism
10,"C=CCNc1nc(NCC=C)nc(N2CCN(CC(=O)[C@@]3(O)CC[C@H]4[C@@H]5CCC6=CC(=O)CC[C@]6(C)C5=CC[C@@]43C)CC2)n1.Cl.Cl.O [Example 60, 17α-hydroxy-21-[4-[4,6-bis(2-propenylamino)-1,3,5-triazin-2-yl]-1-piperazinyl]pregna-4,9(11)-diene-3,20-dione dihydrochloride hydrate]",demonstrate arachidonic acid antagonism
11,"C[C@]12C=CC(=O)C=C1CC[C@@H]1C2=CC[C@@]2(C)[C@H]1CC[C@]2(O)C(=O)CN1CCN(c2cc(N3CCCC3)nc(N3CCCC3)n2)CC1.Cl.Cl.O [Example 74, 17α-hydroxy-21-[4-[2,6-di-(1-pyrrolidinyl)-4-pyrimidinyl]-1-piperazinyl]pregna-1,4,9(11)-triene-3,20-dione dihydrochloride hydrate]",demonstrate arachidonic acid antagonism
12,"CCN(CC)c1cc(N2CCN(CC(=O)[C@@]3(O)CC[C@H]4[C@@H]5CCC6=CC(=O)C=C[C@]6(C)C5=CC[C@@]43C)CC2)nc(N(CC)CC)n1.Cl.Cl.O [Example 75, 21-[4-[2,6-bis(diethylamino)-4-pyrimidinyl]-1-piperazinyl]-17α-hydroxypregna-1,4,9(11)-triene-3,20-dione dihydrochloride hydrate]",demonstrate arachidonic acid antagonism

# Test system: angiogenesis
# Assay: fertile egg or chick embryo assay of Folkman (inhibition of angiogenesis / tumor growth)
# Type: in vivo
# Settings: chick embryo; 50 μg/10 μl in the presence of heparin
# Description: According to this procedure compounds which are considered to be "active" (i.e, antiangiogenic) give an avascular zone of 4 mm or greater in some embryos when tested at 50 μg/10 μl in the presence of 50 μg/10 μ of heparin.
row,SMILES,% of Embryos with 4 mm or Greater A vascular Zone [%]
1,C[C@]12CCC(=O)C=C1CC[C@@H]1[C@@H]2C(=O)C[C@@]2(C)[C@H]1CC[C@]2(O)C(=O)CN1CCN(c2ccccn2)CC1 [Example 20],72
2,"COc1ccccc1N1CCN(CC(=O)[C@@]2(O)CC[C@H]3[C@@H]4CCC5=CC(=O)CC[C@]5(C)[C@H]4CC[C@@]32C)CC1.Cl.Cl.O [Example 41, 17α-hydroxy-21-[4-(2-methoxyphenyl)-1-piperazinyl]-pregn-4-ene-3,20-dione dihydrochloride hydrate]",80
3,"C[C@H]1C[C@H]2[C@@H]3CC[C@H]4CC(=O)CC[C@]4(C)C3=CC[C@]2(C)[C@@]1(O)C(=O)CN1CCN(c2ccccn2)CC1.Cl.Cl.O [Example 44, 17α-hydroxy-16β-methyl-21-[4-(2-pyridinyl)-1-piperazinyl]-5α-pregn-9(11)-ene-3,20-dione dihydrochloride hydrate]",75

# Same assay, conditions: chick embryo; 50 μg/10 μl with heparin; avascular zone 4 mm or greater
row,SMILES,inhibition of angiogenesis
1,"C[C@]12CCC(=O)C=C1CC[C@@H]1C2=CC[C@@]2(C)[C@H]1CC[C@]2(O)C(=O)CN1CCN(C(=O)c2ccco2)CC1 [Example 6B, 17α-Hydroxy-21-[4-(2-furonylcarbonyl)-1-piperazinyl]-pregna-4,9(11)-diene-3,20-dione]",demonstrate inhibition of angiogenesis
2,C[C@]12CCC(=O)C=C1CC[C@@H]1[C@@H]2C(=O)C[C@@]2(C)[C@H]1CC[C@]2(O)C(=O)CN1CCN(c2ccccn2)CC1 [Example 20],demonstrate inhibition of angiogenesis
3,"COc1ccc(N2CCN(CC(=O)[C@@]3(O)CC[C@H]4[C@@H]5CCC6=CC(=O)CC[C@]6(C)[C@H]5[C@H](OC(=O)CC(C)(C)C)C[C@@]43C)CC2)cc1 [Example 32, 11α,17α-dihydroxy-21-[4-(4-methoxyphenyl)-1-piperazinyl]pregn-4-ene-3,20-dione 11-(3,3-dimethyl 1-butyrate) dihydrochloride]",demonstrate inhibition of angiogenesis
4,"COc1ccc(N2CCN(CC(=O)[C@@]3(O)CC[C@H]4[C@@H]5C[C@H](C)C6=CC(=O)C=C[C@]6(C)[C@H]5[C@@H](O)C[C@@]43C)CC2)cc1 [Example 33, 11β,17α-dihydroxy-21-[4-(4-methoxyphenyl)-1-piperazinyl]-6α-methylpregna-1,4-diene-3,20-dione dihydrochloride]",demonstrate inhibition of angiogenesis
5,"COc1ccc(CCNCC(=O)[C@@]2(O)CC[C@H]3[C@@H]4C[C@H](C)C5=CC(=O)C=C[C@]5(C)[C@H]4[C@@H](O)C[C@@]32C)cc1OC [Example 34, 11β,17α-dihydroxy-21-[[2-(3,4-dimethoxyphenyl)ethyl]-amino]-6α-methylpregna-1,4-diene-3,20-dione hydrochloride]",demonstrate inhibition of angiogenesis
6,"C[C@]12C[C@@H](O)[C@H]3[C@@H](CCC4=CC(=O)CC[C@@]43C)[C@@H]1CC[C@@H]2C(=O)CN1CCN(c2ccccn2)CC1.Cl.Cl [Example 36, 11α-hydroxy-21-[4-(2-pyridinyl)-1-piperazinyl]pregn-4-ene-3,20-dione, dihydrochloride]",demonstrate inhibition of angiogenesis
7,"CCN(CC)c1cc(N2CCN(CC(=O)[C@@]3(O)CC[C@H]4[C@@H]5C[C@H](C)C6=CC(=O)C=C[C@]6(C)C5=CC[C@@]43C)CC2)nc(N(CC)CC)n1 [Example 63, 21-[4-[2,6-bis(diethylamino)-4-pyrimidinyl]-1-piperazinyl]-17α-hydroxy-6α-methylpregna-1,4,9(11)-triene-3,20-dione(E)-2-butenedioate (1:1) salt]",demonstrate inhibition of angiogenesis
8,"C[C@]12CCC(=O)C=C1CC[C@@H]1C2=CC[C@@]2(C)[C@H]1CC[C@]2(O)C(=O)CN1CCN(c2cc(N3CCCC3)nc(N3CCCC3)n2)CC1 [Example 64, 17α-hydroxy-21-[4-[2,6-bis(1-pyrrolidinyl)-4-pyrimidinyl]-1-piperazinyl]pregna-4,9(11)-diene-3,20-dione (E)-2-butenedioate (1:1) salt]",demonstrate inhibition of angiogenesis
9,"C[C@]12CC[C@@H](O)C[C@H]1CC[C@@H]1[C@@H]2C(=O)C[C@@]2(C)[C@H]1CC[C@]2(O)C(=O)CN1CCN(c2ccccn2)CC1 [Example 99, 3α,17α-dihydroxy-21-[4-(2-pyridinyl)-1-piperazinyl]-5β-pregnane-11,20-dione dihydrochloride hydrate]",demonstrate inhibition of angiogenesis
